How the values were obtained:
[1] = tested on: A2780cisR cells; assay: MTT cytotoxicity assay, cDDP-resistant A2780cisR cells; format: cell-based, Human; details: 72-h exposure
Protocol: (§1) Human ovarian carcinoma (A2780) and cDDP-resistant A2780 (A2780cisR) cells were cultured in RPMI 1640 with 10% FBS and 100 units penicillin/streptomycin. HeLa cells, adenocarcinomic human alveolar basal epithelial cells (A549) and cDDP-resistant A549 (A549cisR) cells were cultured in DMEM containing 10% FBS and 100 units penicillin/streptomycin. All cells were incubated at 37° C. under 5% CO2. The cDDP-resistant cells, A549cisR and A2780cisR were generated from their parental A549 or A2780 cells. Briefly, A549 or A2780 cells were cultured in complete medium containing 0.5 μg/mL cisplatin at the beginning for the first screening, and the remaining cells were cultured in complete medium containing 1.0 μg/mL cisplatin for at least 4 weeks until the resistance was obtained. An MTT assay was used to evaluate the cytotoxicity of cDDP and the subject heterodinuclear Pt—Ru compounds Ruthplatin-1, 2, 3 and 4 against A2780, A2780cisR, A549, A549cisR and HeLa. The results of this assay are depicted in Table 1 of FIG. 9. […] The results of this assay are depicted in Table 2 of FIG. 10. […] After incubating for 72 h, the original medium was removed and 0.2 mL fresh medium containing 1 mg/mL MTT was added to each well. After staining for 4 h, the medium was replaced by DMSO. The absorbance was tested at 570 and 630 nm. A control was set as medium without compound. […]

[2] = tested on: A549 cells; assay: MTT cytotoxicity assay, A549 cells; format: cell-based, human; details: 72-h exposure
Protocol: as §1

[3] = tested on: A549cisR cells; assay: MTT cytotoxicity assay, cDDP-resistant A549cisR cells; format: cell-based, human; details: 72-h exposure
Protocol: as §1

[4] = tested on: HeLa cells; assay: MTT cytotoxicity assay, HeLa cells; format: cell-based; details: 72-h exposure
Protocol: as §1

[5] = tested on: A2780, A2780cisR, A549, A549cisR and HeLa; assay: MTT cytotoxicity assay, all cell lines tested; format: cell-based; details: each of the cell lines, 72-h exposure
Protocol: Human ovarian carcinoma (A2780) and cDDP-resistant A2780 (A2780cisR) cells were cultured in RPMI 1640 with 10% FBS and 100 units penicillin/streptomycin. HeLa cells, adenocarcinomic human alveolar basal epithelial cells (A549) and cDDP-resistant A549 (A549cisR) cells were cultured in DMEM containing 10% FBS and 100 units penicillin/streptomycin. All cells were incubated at 37° C. under 5% CO2. The cDDP-resistant cells, A549cisR and A2780cisR were generated from their parental A549 or A2780 cells. Briefly, A549 or A2780 cells were cultured in complete medium containing 0.5 μg/mL cisplatin at the beginning for the first screening, and the remaining cells were cultured in complete medium containing 1.0 μg/mL cisplatin for at least 4 weeks until the resistance was obtained.
An MTT assay was used to evaluate the cytotoxicity of cDDP and the subject heterodinuclear Pt—Ru compounds Ruthplatin-1, 2, 3 and 4 against A2780, A2780cisR, A549, A549cisR and HeLa. The results of this assay are depicted in Table 1 of FIG. 9. […]
For each of these assays, cells were seeded in 96-well plates at a density of 1,500 cells per well (for A2780, A549 and HeLa) or 2,500 cells per well (for A2780cisR and A549cisR) and were incubated till their confluency reached about 30%. […] The absorbance was tested at 570 and 630 nm. […]

In the case of [NH2][Pt]([NH2])([Cl])[Cl] [cDDP, Cisplatin, reference compound], the “RF (resistant factor) = IC50 in A2780cisR/IC50 in A2780” value [1] is reported as 17.4.
With Cc1ccc(C(C)C)cc1.[NH3+][Pt-2]([NH3+])([OH])([Cl])([Cl])[O]C(=O)CCc1ccc[n+]([Ru-]2[O]C(=O)C(=O)[O]2)c1 [Ruthplatin-4] the “RF (resistant factor) = IC50 in A2780cisR/IC50 in A2780” value [1] was 2.1, the “cytotoxicity in A549 cells (compared with cisplatin)” value [2] was “significantly increased cytotoxicity” and the “RF (resistant factor) = IC50 in A549cisR/IC50 in A549, compared with cisplatin” value ([3]; A549/A549cisR cells) was “decreases”. For the same compound, the “cytotoxicity in A549cisR cells (compared with cisplatin)” value ([3]; A549cisR cells) was “significantly increased cytotoxicity”, the “activity against the proliferation of HeLa cells” value [4] was “very active” and the “IC50 values compared with cDDP” value [5] was “significantly lower than that of cDDP”.

— patent US9650402B2, “Heterodinuclear platinum-ruthenium complexes, preparation thereof and therapeutic use thereof” (City University of Hong Kong, priority 2015, dated 2017)
